Data as given in patent publication US20030040510A1, “Selective estrogen receptor modulators in combination with estrogens” (Endorecherche, Inc., priority 2000, published 2003).
“Also recorded” adds a separate entry of the source. Marks after values point to notes of the source that are not given here.

Legend:
[1] = system: uterus and vagina of ovariectomized nude mice; experiment: Uterine, vaginal and body weight in the xenograft-bearing OVX nude mice (Example 1)
[2] = system: bone metabolism in the rat; experiment: Biochemical parameters of bone metabolism (urine, serum) after DHEA and/or EM-800; format: in vivo; conditions: DHEA 10 mg, EM-800 75 μg
Description: Data are expressed as the means±SEM.**: P<0.01 experimental versus respective control.
It is particularly important to indicate that the combination of DHEA and EM-800 exerted unexpected beneficial effects on important biochemical parameters of bone metabolism. […] Moreover, no effect of DHEA could be detected on daily urinary calcium or phosphorus excretion (Luo et al., Endocrinology 138: 4435-4444, 1997). EM-800, decreased the urinary hydroxyproline/creatinine ratio by 48% while, similarly to DHEA, no effect of EM-800 was seen on urinary calcium or phosphorus excretion. EM-800, moreover, had no effect on serum alkaline phosphatase activity, a marker of bone formation while DHEA increased the value of the parameter by about 75% (Luo et al., Endocrinology 138: 4435-4444, 1997).

[3] = system: ovariectomized female rats; experiment: Prevention of bone loss, body fat, serum cholesterol and ALP, 3-month treatment of OVX rats (Example 5A, experiment 1); format: in vivo, Sprague-Dawley rats; conditions: 3 months
Method: (§1) Ten to twelve week-old female Sprague-Dawley rats (Crl:CD(SD)Br) (Charles River Laboratory, St-Constant, Canada) weighing approximately 220-270 g at start of treatment were used. The animals were acclimatized to the environmental conditions (temperature: 22±3° C.; humidity: 50±20%; 12-h light-12-h dark cycles, lights on at 07:15 h) for at least 1 week before starting the experiments. The animals were housed individually and were allowed free access to tap water and a pelleted certified rodent feed (Lab Diet 5002, Ralston Purina, St-Louis, Mo.). Experiments were conducted in an animal facility approved by the Canadian Council on Animal Care (CCAC) and the Association for Assessment and Accreditation of Laboratory Animal Care (AAALAC) in accordance with the CCAC Guide for Care and Use of Experimental Animals.
On day 1 of the study, the animals of the appropriate groups were bilaterally ovariectomized (OVX) under isoflurane anesthesia. […] Treatments were initiated on day 2 of the study and were performed once daily during 3 months.
After 3 months (experiment 1) or 26 weeks (experiment 2) of treatment, individual rats under Isoflurane anesthesia had their whole body skeleton and lumbar spine scanned using dual energy x-ray absorptiometry (DEXA; QDR 4500A, Hologic, Waltham, Mass.) and a Regional High Resolution Scan software. The bone mineral density (BMD) of the lumbar spine (vertebrae L2 to L4) and the total body composition (fat percentage) were determined.
After 3 months (experiment 1) or 26 weeks (experiment 2) of treatment, blood samples were collected at the jugular vein from overnight fasted animals (under Isoflurane anesthesia). Samples were processed for serum preparation and frozen at −80° C. until assay. Serum cholesterol levels and alkaline phospatase activity (ALP) were determined using the Boehringer Mannheim Diagnostic Hitachi 911 Analyzer (Boehringer Mannheim Diagnostic Laboratory Systems).

[4] = system: OVX rats having established osteopenia; experiment: Treatment of OVX rats having established osteopenia, 26 weeks (Example 5B): BMD, total body fat; format: in vivo, Sprague-Dawley rats; conditions: treatment started 10 weeks after OVX, 26 weeks daily
Method: as §1, with “Height” for “Ten”, “nine month-old” for “twelve week-old”, “Canada)” for “Canada) weighing approximately 220-270 g at start of treatment”, “used in this experiment.” for “used.”, “prior to” for “before starting”, “ovariectomy. Animals were bilaterally ovariectomized (OVX) under isoflurane anesthesia. Twenty animals were kept intact as control.” for “experiments.”
Treatments were initiated 10 weeks after the ovariectomy and were performed once daily during 26 weeks. Animals not receiving a test article were treated with the appropriate vehicle alone during the same period.
Prior to the OVX, prior to the first day treatment (10 weeks after OVX) and after 26 weeks of treatment, individual rats under Isoflurane anesthesia had their whole body skeleton, lumbar spine and right femur scanned using dual energy x-ray absorptiometry (DEXA; QDR 4500A, Hologic, Waltham, Mass.) and a Regional High Resolution Scan software. The bone mineral density (BMD) of the lumbar spine (vertebrae L2 to L4), femur and the total body composition (fat percentage) were determined.

[5] = system: bone metabolism in the rat; conditions: cited from earlier work
[6] = system: ZR-75-1 breast tumor xenografts; experiment: Growth of human ZR-75-1 breast tumor xenografts in OVX nude mice supplemented with estrone (DHEA, EM-800; Example 1); conditions: OVX + E1; for Inhibition of E1-stimulated ZR-75-1 tumor size / Inhibition of terminal tumor weight / Average tumor weight: 9.5 months
[7] = system: ovariectomized rats; experiment: 5-diol alone or with Flutamide and/or EM-800 for 12 months in ovariectomized rats (bone mass, serum markers)
[8] = system: ZR-75-1 breast tumors; experiment: Growth and response category of human ZR-75-1 breast tumors in OVX nude mice, 7 antiestrogens, 161 days (Example 8); format: in vivo; conditions: 161 days
Method: The mice (5 per cage) were housed in vinyl cages equipped with air filter lids, which were kept in laminar airflow hoods and maintained under pathogen-limiting conditions. The photoperiod was 12 hours of light and 12 hours of darkness (lights on at 07:15). Cages, bedding and food (Agway Pro-Lab R-M-H Diet #4018) were autoclaved before use. Water was autoclaved and provided ad libitum. Bilateral ovariectomy was performed under isoflurane-induced anesthesia. […] Randomization and treatments were started one week later. […] The 17 groups included two control groups (OVX and OVX+Estrone), seven groups supplemented with an estrone implant and treated with an antiestrogen and eight other groups that received an antiestrogen alone. The estrone implants were then removed from the animals in the ovariectomized control group (OVX) and in groups that were to receive the antiestrogen alone. […] Tamoxifen was purchased from […], Israel) while toremifene citrate was purchased from Orion (Espoo, Finland). […] Animals in both control groups received 0.2 ml of the vehicle alone. The antiestrogen suspensions at the appropriate concentration were prepared each month, stored at 4° C. and used under constant agitation. Powder stock were hermetically stored at 4° C. […] Tumor response was assessed at the end of the study or at death of each animal, if it occurred during the course of the experiment. In this case, only data of mice that survived for at least half of the study (84 days) were used in the tumor response analysis.

[9] = system: endometrial epithelium; experiment: Thickness of uterine (endometrial) epithelial cells in the mice of Example 8; format: in vivo, nude mice; conditions: OVX + antiestrogen 200 μg daily, no estrone, 161 days
Description: The 17 groups included two control groups (OVX and OVX+Estrone), seven groups supplemented with an estrone implant and treated with an antiestrogen and eight other groups that received an antiestrogen alone. The estrone implants were then removed from the animals in the ovariectomized control group (OVX) and in groups that were to receive the antiestrogen alone. […] Tamoxifen was purchased from […], Israel) while toremifene citrate was purchased from Orion (Espoo, Finland). […] Animals in both control groups received 0.2 ml of the vehicle alone. The antiestrogen suspensions at the appropriate concentration were prepared each month, stored at 4° C. and used under constant agitation. Powder stock were hermetically stored at 4° C. […] After 161 days of treatment, the remaining animals were anesthetized with isoflurane and killed by exsanguination. […] The uteri were prepared to evaluate endometrial thickness by image analysis performed with Image Pro-Plus (Media Cybernetics, Maryland, USA). […] Hematoxylin- and eosin-stained sections of mice uteri were analysed. […] Mean epithelial cell height was measured in all animals of each group.

[10] = system: breast and endometrial tissues; experiment: Antiestrogens tested for SERM function and estrogenic activity in breast and endometrium
Description: As used herein, a selective estrogen receptor modulator (SERM) is a compound that either directly or through its active metabolite functions as an estrogen receptor antagonist (“antiestrogen”) in breast tissue, yet provides estrogenic or estrogen-like effect on bone tissue and on serum cholesterol levels (i.e. by reducing serum cholesterol). Non-steroidal compounds that function as estrogen receptor antagonists in vitro or in human or rat breast tissue (especially if the compound acts as an antiestrogen on human breast cancer cells) is likely to function as a SERM. Conversely, steroidal antiestrogens tend not to function as SERMs because they tend not to display any beneficial effect on serum cholesterol. […] These SERMs may be called “pure SERMs”. […] This second series of SERMs may be called “mixed SERMs”. The unwanted estrogenic activities of these “mixed SERMs”, may be inhibited by addition of pure “SERMs” as shown in FIGS. 6 and 7 in in vitro tests and in FIG. 9 in an in vivo test of breast cancer.

[11] = OVX rats, E2 1 mg/kg, EM-652.HCl 2.5 mg/kg, DHEA 80 mg/kg
[12] = DHEA 0.3 mg (alone or with EM-800 15 μg)
[13] = DHEA 1.0 mg (alone or with EM-800 15 μg)
[14] = DHEA 3.0 mg (alone or with EM-800 15 μg)

SMILES: C[C@]12CC[C@H](O)CC1=CC[C@@H]1[C@@H]2CC[C@]2(C)C(=O)CC[C@@H]12 [DHEA, dehydroepiandrosterone, reference compound]
- Effect on body weight adjusted for tumor weight ([1]; 9.5 months): No significant effect
- Effect on estrone-stimulated vaginal weight ([1]; addition of DHEA to estrone): had no significant effect
- Inhibition of the stimulatory effect of estrone on uterine weight ([1]; highest dose of DHEA used): 26%
- Serum tALP [2]: 198.38 ± 30.76* IU/L
- Urine HP/Cr [2]: 14.02 ± 1.59 μmol/mmol
- Urine calcium [2]: 25.87 ± 3.54 μmol/24h/100g
- Urine phosphorus [2]: 151.41 ± 14.57 μmol/24h/100g
- Serum ALP ([3]; OVX rats): 224±18 IU/L
- Serum cholesterol ([3]; OVX rats): 1.59 ± 0.10 mmol/L
- Total fat ([3]; OVX rats): 17.3 ± 1.5 %
- Lumbar spine BMD [3, 11]: 0.2321 ± 0.0034 g/cm^2
- Lumbar spine, Prevention of Bone Loss [3, 11]: 43%
- Femoral BMD [4]: completely prevented the further decrease
- Lumbar spine BMD [4]: completely prevented the further decrease
- Total body fat [4]: prevented the 17% increase
- Decrease of urinary hydroxyproline/creatinine ratio [5]: did not affect; also recorded: did not show any effect
- Effect on daily urinary calcium or phosphorus excretion [5]: no effect
- Increase of serum alkaline phosphatase activity [5]: about 75%
- Inhibition of E1-stimulated ZR-75-1 tumor size ([6]; DHEA 0.3 mg percutaneous): 50.4%
- Inhibition of terminal tumor weight ([6]; DHEA 0.3 mg): 67%
- Inhibition of E1-stimulated ZR-75-1 tumor size ([6]; DHEA 1.0 mg percutaneous): 76.8%
- Inhibition of terminal tumor weight ([6]; DHEA 1.0 mg): 82%
- Inhibition of E1-stimulated ZR-75-1 tumor size ([6]; DHEA 3.0 mg percutaneous): 80.0%
- Inhibition of terminal tumor weight ([6]; DHEA 3.0 mg): 85%
- Category of response: Partial [6, 12]: 0 (0) Number and (%)
- Average tumor weight [6, 12]: 0.37 ± 0.12 g
- Category of response: Partial [6, 13]: 0 (0) Number and (%)
- Average tumor weight [6, 13]: 0.20 ± 0.06 g
- Category of response: Partial [6, 14]: 0 (0) Number and (%)
- Average tumor weight [6, 14]: 0.17 ± 0.06 g

SMILES: CC(C)C(=O)Nc1ccc([N+](=O)[O-])c(C(F)(F)F)c1 [FLU, Flutamide]
- Reversal of 5-diol-stimulated serum alkaline phosphatase activity ([7]; simultaneous FLU, vs 12.5 mg 5-diol alone): 57%

SMILES: CC/C(=C(\c1ccccc1)c1ccc(/C=C/C(=O)O)cc1)c1ccccc1 [GW 5638]
- Serum ALP ([3]; OVX rats): 72 ± 6 IU/L
- OVX-induced increase on serum cholesterol levels ([3]; alone or in combination with E2): completely prevented
- Progressing tumors ([8]; 50 μg daily + estrone): 77%
- Change of ZR-75-1 tumor size compared to the OVX control group ([8]; 200 μg daily alone, absence of estrone): did not significantly change
- Endometrial epithelium thickness [9]: 22.22^a ± 0.05 μm
- Function as SERM [10]: found to function as SERMs
- Estrogenic activity in breast and endometrial tissues ([10]; physiological or pharmacological concentrations): have some estrogenic activities

SMILES: C[C@]12CC[C@H]3[C@@H](CC=C4C[C@@H](O)CC[C@@]43C)[C@@H]1CC[C@@H]2O [5-diol, androst-5-ene-3β,17β-diol]
- Serum alkaline phosphatase activity ([7]; 5-diol): marked stimulation
- Urinary ratio of calcium to creatinine ([7]; 5-diol): no statistically significant inhibitory effect
- Reduction of serum cholesterol ([7]; highest dose of 5-diol): 23%
